In ChEMBL document CHEMBL1201862, “PubChem BioAssay data set” (2004):
Activity calls are given as the source filed them.

Legend:
Estrogen receptor = molecular target: T1, Estrogen receptor (Homo sapiens, UniProt P03372);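 further: potency for inhibiting coactivator peptide recruitment to the receptor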
T1 sequence (P03372 whole entry): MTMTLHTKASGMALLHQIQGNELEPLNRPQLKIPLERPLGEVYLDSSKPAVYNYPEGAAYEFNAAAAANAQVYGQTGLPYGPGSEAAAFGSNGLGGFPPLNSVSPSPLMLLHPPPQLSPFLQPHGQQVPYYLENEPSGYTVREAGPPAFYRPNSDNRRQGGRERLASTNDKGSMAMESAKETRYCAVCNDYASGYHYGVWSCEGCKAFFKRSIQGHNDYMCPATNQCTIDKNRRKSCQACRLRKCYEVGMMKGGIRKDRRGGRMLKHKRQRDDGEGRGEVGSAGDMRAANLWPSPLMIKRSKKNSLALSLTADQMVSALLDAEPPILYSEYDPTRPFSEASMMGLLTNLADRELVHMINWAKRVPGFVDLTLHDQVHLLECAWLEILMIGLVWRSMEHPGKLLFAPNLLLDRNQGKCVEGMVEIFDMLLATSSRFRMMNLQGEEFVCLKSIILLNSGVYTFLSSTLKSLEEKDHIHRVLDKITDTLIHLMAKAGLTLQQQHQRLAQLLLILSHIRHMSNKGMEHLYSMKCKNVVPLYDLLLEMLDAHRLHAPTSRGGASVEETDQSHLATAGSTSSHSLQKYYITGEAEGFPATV

[1] = molecular target: DNA dC->dU-editing enzyme APOBEC-3A (Homo sapiens, UniProt P31941); assay: Dose Response confirmation of small molecule APOBEC3A DNA Deaminase Inhibitors via a fluorescence-based single-stranded DNA deaminase assay. [Related pubchem assays (depositor defined):AID493011, AID493024]; format: functional
Sequence of DNA dC->dU-editing enzyme APOBEC-3A (P31941 whole entry): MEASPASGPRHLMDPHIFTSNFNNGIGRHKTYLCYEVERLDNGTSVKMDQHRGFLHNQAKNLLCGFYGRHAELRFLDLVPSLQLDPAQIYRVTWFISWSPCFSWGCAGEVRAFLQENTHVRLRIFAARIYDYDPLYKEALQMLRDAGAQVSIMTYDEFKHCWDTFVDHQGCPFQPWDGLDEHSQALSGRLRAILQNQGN

[2] = molecular target: DNA dC->dU-editing enzyme APOBEC-3G (Homo sapiens, UniProt Q9HC16); format: functional;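 further: Dose-response counterscreen measuring inhibition of APOBEC3G DNA deaminase activity, run while confirming APOBEC3A inhibitors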
Sequence of DNA dC->dU-editing enzyme APOBEC-3G (Q9HC16 whole entry): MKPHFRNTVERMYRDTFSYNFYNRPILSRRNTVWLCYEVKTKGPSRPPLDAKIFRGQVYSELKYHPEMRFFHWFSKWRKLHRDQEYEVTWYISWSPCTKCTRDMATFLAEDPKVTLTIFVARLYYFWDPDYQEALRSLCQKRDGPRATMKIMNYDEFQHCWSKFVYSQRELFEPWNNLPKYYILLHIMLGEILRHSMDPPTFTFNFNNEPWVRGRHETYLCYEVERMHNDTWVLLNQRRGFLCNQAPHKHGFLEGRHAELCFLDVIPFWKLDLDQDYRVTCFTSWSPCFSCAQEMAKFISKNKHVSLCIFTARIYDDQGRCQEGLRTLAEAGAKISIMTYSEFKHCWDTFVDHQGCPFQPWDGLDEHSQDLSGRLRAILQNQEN

CAAX prenyl protease 2 = molecular target: T2, CAAX prenyl protease 2 (Saccharomyces cerevisiae S288c, UniProt Q03530); format: biochemical
T2 sequence (Q03530 whole entry): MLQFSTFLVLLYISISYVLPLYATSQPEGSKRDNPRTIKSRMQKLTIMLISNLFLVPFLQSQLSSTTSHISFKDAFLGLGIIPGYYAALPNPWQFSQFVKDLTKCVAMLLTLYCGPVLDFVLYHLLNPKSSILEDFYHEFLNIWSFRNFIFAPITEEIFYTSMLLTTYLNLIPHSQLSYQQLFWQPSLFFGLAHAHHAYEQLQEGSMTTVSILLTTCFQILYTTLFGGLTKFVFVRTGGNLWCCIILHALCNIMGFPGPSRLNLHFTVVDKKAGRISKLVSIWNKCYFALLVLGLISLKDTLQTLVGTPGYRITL

[3] = molecular target: T3, Heat shock factor protein 1 (Mus musculus, UniProt P38532); assay: inhibition of MG132-induced HSE-luciferase signal, confirmation, cell-based, NIH3T3, luminescence, dose retest (AID 2382); format: functional;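 further: NIH3T3 fibroblasts with HSF1-driven luciferase reporter stressed by proteasome inhibitor MG132; luminescence from HSF1-driven luciferase expression after 8 hours of MG132 stress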
T3 sequence (P38532 whole entry): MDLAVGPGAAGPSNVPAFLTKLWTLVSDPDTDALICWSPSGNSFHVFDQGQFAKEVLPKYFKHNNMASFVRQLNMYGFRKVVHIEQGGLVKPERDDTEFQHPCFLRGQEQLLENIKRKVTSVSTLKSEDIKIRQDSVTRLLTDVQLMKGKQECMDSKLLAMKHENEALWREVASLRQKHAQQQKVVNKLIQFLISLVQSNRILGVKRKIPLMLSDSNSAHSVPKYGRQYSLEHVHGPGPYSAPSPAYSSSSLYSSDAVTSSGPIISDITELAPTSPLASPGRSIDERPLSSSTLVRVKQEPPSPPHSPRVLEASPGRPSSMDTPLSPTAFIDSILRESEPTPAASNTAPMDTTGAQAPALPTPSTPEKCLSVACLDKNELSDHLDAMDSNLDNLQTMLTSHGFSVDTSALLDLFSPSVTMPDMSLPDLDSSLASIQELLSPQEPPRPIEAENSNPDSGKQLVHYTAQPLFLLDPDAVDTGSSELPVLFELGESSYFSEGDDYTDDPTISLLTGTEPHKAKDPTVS

[4] = HEp-2 cell cytotoxicity, dose response, cytotoxicity control for RSV inhibitor project, HTS (AID 2410); format: functional; details: human respiratory syncytial virus
INS1 = assay: beta cell apoptosis inhibitors, cytokine rescue, dose response, luminescence, retest (AID 449756); format: functional, cell-based; details: Rattus norvegicus;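 further: cell death triggered by IL-1 beta plus TNF-alpha plus IFN-gamma mixture; protective hits raise ATP signal compared with cytokine alone wells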
[5] = inhibitors of intracellular T. cruzi replication, confirmation, NIH3T3 host cells, beta-gal luminescence (AID 2044); format: functional, cell-based;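 further: intracellular parasites grown in NIH/3T3 mouse fibroblasts as host cells; luminescent beta-galactosidase reporter signal from transgenic T. cruzi replicating inside host cells; inhibitors lower the luminescence signal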
[6] = cytotoxicity toward NIH3T3 fibroblasts, dose response, counter-screen, cell-based, ATP luminescence, mouse fibroblasts (AID 2010); format: functional;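 further: cells exposed to compound for about 90 hours before reading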
[7] = molecular target: T4, DNA repair protein RAD52 homolog (Homo sapiens, UniProt P43351); format: functional, biochemical
T4 sequence (P43351 whole entry): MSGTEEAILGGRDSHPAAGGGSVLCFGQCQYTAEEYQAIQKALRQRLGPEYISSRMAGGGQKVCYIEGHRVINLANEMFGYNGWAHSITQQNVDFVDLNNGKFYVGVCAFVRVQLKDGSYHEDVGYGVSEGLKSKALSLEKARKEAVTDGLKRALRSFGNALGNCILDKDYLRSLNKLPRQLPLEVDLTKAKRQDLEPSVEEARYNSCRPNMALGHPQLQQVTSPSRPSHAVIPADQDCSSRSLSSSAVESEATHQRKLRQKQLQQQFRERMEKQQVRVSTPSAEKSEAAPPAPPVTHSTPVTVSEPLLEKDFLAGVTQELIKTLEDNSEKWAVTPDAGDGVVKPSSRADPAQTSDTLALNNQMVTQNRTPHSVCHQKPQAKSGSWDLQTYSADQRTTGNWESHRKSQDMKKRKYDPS

[8] = molecular target: T5, Ubiquitin-conjugating enzyme E2 N (Homo sapiens, UniProt P61088); format: functional;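 further: Dose-response confirmation in a TR-FRET assay detecting UBC13-driven polyubiquitin chain formation, inhibition measured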
T5 sequence (P61088 whole entry): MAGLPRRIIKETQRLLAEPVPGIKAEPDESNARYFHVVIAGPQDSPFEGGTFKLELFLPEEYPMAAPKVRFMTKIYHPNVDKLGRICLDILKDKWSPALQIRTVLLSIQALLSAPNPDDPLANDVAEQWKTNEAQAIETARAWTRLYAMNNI

[9] = A Cell Based Secondary Assay To Explore Cytotoxicity of Compounds that Sensitize Mycobacterium Tuberculosis to Beta-Lactam Antibiotics.; format: functional
Mucolipin-3 = molecular target: T6, Mucolipin-3 (Homo sapiens, UniProt Q8TDD5); assay: Dose response cell-based high-throughput screening assay for agonists of the transient receptor potential channel ML3 (TRPML3). [Related pubchem assays: 1526, 1424, 1448 ]; format: functional
T6 sequence (Q8TDD5 whole entry): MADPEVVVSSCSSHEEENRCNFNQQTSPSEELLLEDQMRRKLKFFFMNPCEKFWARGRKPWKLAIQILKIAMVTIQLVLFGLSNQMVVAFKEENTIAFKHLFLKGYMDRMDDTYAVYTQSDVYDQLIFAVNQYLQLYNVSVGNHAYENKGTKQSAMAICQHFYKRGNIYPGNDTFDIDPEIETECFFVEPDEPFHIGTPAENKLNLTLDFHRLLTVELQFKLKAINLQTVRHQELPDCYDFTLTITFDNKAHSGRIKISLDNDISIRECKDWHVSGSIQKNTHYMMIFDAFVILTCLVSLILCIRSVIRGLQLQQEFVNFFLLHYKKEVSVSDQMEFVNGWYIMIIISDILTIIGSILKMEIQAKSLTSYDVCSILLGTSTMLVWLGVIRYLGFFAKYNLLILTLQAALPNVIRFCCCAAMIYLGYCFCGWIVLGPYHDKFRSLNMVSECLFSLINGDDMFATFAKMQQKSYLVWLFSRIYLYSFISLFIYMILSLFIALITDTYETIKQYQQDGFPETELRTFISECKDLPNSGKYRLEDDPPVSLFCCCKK

Ion channel NompC = Ion channel NompC (Danio rerio, UniProt Q7T1G6); assay: Fluorescence counterscreen assay for TRPML3 agonists: dose response cell-based high-throughput screening assay to identify agonists of the transient receptor potential channel N1 (TRPN1). [Related pubchem assays: 1526, 1424, 1448 ]; format: functional
Sequence of Ion channel NompC (Q7T1G6 whole entry): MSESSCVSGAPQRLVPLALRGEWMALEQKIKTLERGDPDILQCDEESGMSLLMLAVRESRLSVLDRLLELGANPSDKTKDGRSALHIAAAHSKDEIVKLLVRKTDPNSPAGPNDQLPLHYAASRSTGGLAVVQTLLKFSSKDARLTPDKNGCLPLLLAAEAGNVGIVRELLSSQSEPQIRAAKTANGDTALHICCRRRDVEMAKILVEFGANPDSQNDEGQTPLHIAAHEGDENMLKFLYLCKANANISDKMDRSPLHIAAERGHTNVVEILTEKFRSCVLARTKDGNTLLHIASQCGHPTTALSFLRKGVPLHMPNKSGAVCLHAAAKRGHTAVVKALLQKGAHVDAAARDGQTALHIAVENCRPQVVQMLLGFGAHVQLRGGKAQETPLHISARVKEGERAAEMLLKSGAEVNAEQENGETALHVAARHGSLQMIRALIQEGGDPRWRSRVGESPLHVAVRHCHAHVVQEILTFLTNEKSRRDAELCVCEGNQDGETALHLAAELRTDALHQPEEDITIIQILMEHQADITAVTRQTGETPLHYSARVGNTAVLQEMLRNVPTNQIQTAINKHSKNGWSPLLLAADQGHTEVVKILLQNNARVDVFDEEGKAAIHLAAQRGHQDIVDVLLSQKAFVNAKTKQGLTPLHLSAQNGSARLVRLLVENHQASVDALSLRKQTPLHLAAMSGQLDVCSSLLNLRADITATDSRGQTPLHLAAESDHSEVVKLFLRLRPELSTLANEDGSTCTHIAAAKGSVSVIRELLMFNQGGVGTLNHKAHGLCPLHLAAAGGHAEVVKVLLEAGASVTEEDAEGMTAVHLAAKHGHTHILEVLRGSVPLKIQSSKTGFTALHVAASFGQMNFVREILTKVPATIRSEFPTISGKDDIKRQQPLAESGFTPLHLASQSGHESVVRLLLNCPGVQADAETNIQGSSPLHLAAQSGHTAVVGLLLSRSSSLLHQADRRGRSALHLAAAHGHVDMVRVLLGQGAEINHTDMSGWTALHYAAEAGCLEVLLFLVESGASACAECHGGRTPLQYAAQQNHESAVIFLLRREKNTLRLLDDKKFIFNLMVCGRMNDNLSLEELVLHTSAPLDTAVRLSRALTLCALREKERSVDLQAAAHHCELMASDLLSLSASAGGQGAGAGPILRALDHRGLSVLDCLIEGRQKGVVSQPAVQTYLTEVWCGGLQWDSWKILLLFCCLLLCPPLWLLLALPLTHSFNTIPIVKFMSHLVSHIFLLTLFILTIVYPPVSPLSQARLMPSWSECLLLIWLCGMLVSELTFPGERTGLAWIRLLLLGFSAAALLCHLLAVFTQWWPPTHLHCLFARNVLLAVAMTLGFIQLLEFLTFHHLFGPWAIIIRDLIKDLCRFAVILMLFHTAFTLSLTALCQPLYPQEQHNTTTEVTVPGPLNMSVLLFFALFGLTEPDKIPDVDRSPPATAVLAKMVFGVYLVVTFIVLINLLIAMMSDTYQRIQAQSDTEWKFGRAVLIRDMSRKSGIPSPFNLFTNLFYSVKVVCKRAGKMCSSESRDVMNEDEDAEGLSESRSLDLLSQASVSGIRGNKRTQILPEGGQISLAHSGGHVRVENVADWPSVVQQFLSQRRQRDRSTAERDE

Leucine aminopeptidase = molecular target: T7, Leucine aminopeptidase (Plasmodium falciparum 3D7, UniProt Q8IL11); assay: P. falciparum M17LAP inhibitors, primary screen, biochemical, fluorogenic H-Leu-NHMec substrate, 1536-well (AID 1619); format: functional
T7 sequence (Q8IL11 whole entry): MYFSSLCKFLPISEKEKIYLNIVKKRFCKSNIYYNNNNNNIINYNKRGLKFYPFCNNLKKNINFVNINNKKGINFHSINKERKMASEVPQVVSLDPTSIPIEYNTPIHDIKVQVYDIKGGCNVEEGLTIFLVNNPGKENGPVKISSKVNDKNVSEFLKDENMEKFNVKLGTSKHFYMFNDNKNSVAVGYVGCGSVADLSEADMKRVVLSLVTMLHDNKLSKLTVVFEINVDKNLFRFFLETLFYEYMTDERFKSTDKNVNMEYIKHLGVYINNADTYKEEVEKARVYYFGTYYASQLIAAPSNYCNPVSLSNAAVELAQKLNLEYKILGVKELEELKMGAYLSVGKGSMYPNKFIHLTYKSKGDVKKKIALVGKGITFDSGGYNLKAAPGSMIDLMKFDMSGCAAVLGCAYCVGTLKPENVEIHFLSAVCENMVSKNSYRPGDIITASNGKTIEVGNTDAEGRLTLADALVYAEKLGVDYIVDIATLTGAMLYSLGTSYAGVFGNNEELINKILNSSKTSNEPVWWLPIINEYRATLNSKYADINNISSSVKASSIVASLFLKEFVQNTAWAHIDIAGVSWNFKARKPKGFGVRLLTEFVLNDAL

[10] = molecular target: G-protein coupled receptor 55 (Homo sapiens, UniProt Q9Y2T6); assay: GPR55 antagonists blocking LPI-driven arrestin recruitment, primary screen, imaging, U2OS, beta-arrestin-GFP, LPI agonist (AID 2013); format: functional;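 further: antagonist potency measured as reduced agonist-driven arrestin aggregation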
Sequence of G-protein coupled receptor 55 (Q9Y2T6 whole entry): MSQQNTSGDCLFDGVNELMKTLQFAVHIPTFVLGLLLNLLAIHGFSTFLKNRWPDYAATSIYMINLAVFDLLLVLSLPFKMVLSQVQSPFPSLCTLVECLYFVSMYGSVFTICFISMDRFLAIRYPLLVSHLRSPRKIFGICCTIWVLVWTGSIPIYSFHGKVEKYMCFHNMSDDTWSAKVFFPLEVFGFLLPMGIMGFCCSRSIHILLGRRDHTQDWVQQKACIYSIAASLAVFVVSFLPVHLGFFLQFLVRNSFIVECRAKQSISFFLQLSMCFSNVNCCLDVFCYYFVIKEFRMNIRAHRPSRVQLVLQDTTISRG

[11] = molecular target: T8, Calpain-2 catalytic subunit (Sus scrofa, UniProt P43367); assay: pig calpain II inhibitor potency, dose response, biochemical, fluorogenic peptide substrate (AID 1420); format: functional
T8 sequence (P43367 whole entry): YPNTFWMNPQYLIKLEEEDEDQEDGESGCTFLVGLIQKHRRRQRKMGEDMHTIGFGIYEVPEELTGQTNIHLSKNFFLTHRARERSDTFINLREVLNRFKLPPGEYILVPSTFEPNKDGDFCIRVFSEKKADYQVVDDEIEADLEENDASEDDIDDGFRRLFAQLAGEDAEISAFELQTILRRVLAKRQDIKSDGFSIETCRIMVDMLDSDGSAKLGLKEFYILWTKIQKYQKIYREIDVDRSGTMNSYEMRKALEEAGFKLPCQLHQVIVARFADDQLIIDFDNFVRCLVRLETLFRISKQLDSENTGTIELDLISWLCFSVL

[12] = molecular target: FAD-linked sulfhydryl oxidase ALR (Homo sapiens, UniProt P55789); assay: inhibitors of human ALR sulfhydryl oxidase, dose response, biochemical, H2O2 detection, luminescence, cherry-pick (AID 493248)
Sequence of FAD-linked sulfhydryl oxidase ALR (P55789 whole entry): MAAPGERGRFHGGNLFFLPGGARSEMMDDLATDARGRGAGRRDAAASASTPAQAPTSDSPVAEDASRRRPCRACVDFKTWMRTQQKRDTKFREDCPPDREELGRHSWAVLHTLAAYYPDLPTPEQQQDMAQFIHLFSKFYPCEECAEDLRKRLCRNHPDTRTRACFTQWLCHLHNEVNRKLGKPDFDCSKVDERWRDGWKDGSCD

Cytochrome P450 2D6 = Cytochrome P450 2D6 (Homo sapiens, UniProt P10635);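 further: CYP2D6 member of a cytochrome P450 panel assay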
Sequence of Cytochrome P450 2D6 (P10635 whole entry): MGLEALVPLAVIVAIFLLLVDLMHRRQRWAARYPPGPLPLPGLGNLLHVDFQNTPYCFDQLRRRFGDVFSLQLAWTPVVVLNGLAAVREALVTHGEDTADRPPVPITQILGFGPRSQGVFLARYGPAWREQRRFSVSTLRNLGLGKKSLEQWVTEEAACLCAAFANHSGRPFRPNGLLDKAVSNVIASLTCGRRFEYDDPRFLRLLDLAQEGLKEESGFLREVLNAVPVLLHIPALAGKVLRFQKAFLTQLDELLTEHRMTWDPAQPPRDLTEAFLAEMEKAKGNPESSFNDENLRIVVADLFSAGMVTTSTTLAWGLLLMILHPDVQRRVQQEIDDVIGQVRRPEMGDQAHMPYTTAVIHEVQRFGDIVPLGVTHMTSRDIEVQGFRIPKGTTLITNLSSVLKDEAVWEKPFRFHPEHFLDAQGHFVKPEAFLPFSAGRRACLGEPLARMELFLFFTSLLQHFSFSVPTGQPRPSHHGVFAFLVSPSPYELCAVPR

H9c2 = assay: cells; format: functional, cell-based; details: Rattus norvegicus, H9c2, Myocardium;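 further: confirmatory concentration-response retest of ultra-high-throughput screening hits for modulation of myocardial damage; cell death induced by hydrogen peroxide oxidative stress; compound pretreatment for 60 min then peroxide exposure for 2 h; potency is for protecting the cells against peroxide damage rather than for killing them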

Compound: COc1ccc(C)cc1-n1nnnc1SCC(=O)NC(=O)NCc1ccco1
- IC50 (Estrogen receptor): 9.48 µM (active)

Compound: CCN1C(=NCCN2CCOCC2)N[C@@H](c2ccccc2)C(C(=O)OC)=C1C
- IC50 [1]: 4.2 µM (active)
- IC50 [2]: 4.54 µM (active)

Compound: CC1CCN(Cc2c(C(=O)N/N=C/c3cccc(C(F)(F)F)c3)nnn2-c2nonc2N)CC1
- AC50 (CAAX prenyl protease 2): 0.254 µM (active)

Compound: Cc1cccc(C)c1-n1c(C)cc(/C=C2\NC(=O)NC2=O)c1C
- IC50 (cells): 8.7 µM (active)
- EC50 [3]: > 195 µM (not active)
- CC50 [4]: 24.6 µM (active)

Compound: CN1CCC(N(C)S(=O)(=O)c2ccc(NC(=O)COc3ccc(Br)cc3Cl)cc2)CC1
- IC50 [1]: 10.4 µM (active)
- IC50 [2]: 14.2 µM (active)

Compound: Cc1ccc(C(=O)N/C(=C\c2ccc(-c3ccc(Cl)cc3)o2)C(=O)NCCCN(C)C)cc1
- AC50 (INS1): 7.74 µM (active)
- EC50 [5]: 1.63 µM (active)
- EC50 [6]: > 30 µM (not active)
- AC50 [7]: 18.5 µM (active)
- IC50 [8]: > 20 µM (inactive)
- CC50 [9]: 11.2 µM (active)

Compound: Cc1cc(C)c(S(=O)(=O)c2c(C)cccc2C)c(OCC(C)C)n1
- EC50 (Mucolipin-3): 4.35 µM (active)
- EC50 (Ion channel NompC): > 29.9 µM (not active)

Compound: COc1ccc(-n2nc(C(=O)NCC(=O)N(C)Cc3ccccc3)c3ccccc3c2=O)cc1
- AC50 (CAAX prenyl protease 2): 70.8 µM (active)

Compound: O=S(=O)(c1ccccc1)N1CCC(c2nc(O)c3nnn(Cc4ccc5c(c4)OCCO5)c3n2)CC1
- IC50 (cells): 18.4 µM (active)
- CC50 [4]: 28.4 µM (active)

Compound: O=C(N/N=C/c1ccccc1C(=O)O)c1ccc(COc2cccc3cccnc23)cc1
- IC50 (Leucine aminopeptidase): 18.4 µM (active)

Compound: CCc1ccccc1N(CC)C(=O)CCc1nc(-c2ccc(C)cc2)no1
- IC50 [10]: 1.06 µM (active)

Compound: C/C(N)=C(/C#N)C(=O)COC(=O)c1cccc(C)c1O
- IC50 (cells): 9.45 µM (active)

Compound: COc1ccc(OC)c(S(=O)(=O)N2CCCc3ccccc32)c1
- EC50 (Mucolipin-3): 3.58 µM (active)
- EC50 (Ion channel NompC): > 29.9 µM (not active)

Compound: O=C(CCNc1ccc(F)cc1)c1cccc([N+](=O)[O-])c1
- CC50 [9]: > 40 µM (active)

Compound: O=S(=O)(N1CCCCC1)N1CCN(c2cc(Cl)ccc2Cl)CC1
- EC50 (Mucolipin-3): 2.07 µM (active)
- IC50 [11]: 4.07 µM (not active)
- EC50 (Ion channel NompC): > 29.9 µM (not active)

Compound: CCn1c(SCC(=O)NC2CCCCC2)nc2ccccc2c1=O
- IC50 [1]: 5.15 µM (active)
- IC50 [2]: 4.97 µM (active)

Compound: Cc1[nH]c2ccccc2c1N=Nc1cccc(C(=O)O)c1
- IC50 (Leucine aminopeptidase): 80.8 µM (active)
- AC50 [12]: 0.663 µM (active)

Compound: O=C(CN1CCN(S(=O)(=O)c2ccc(F)cc2)CC1)Nc1ccc(Cl)c(C(F)(F)F)c1
- AC50 (Cytochrome P450 2D6): 39.8 µM (inconclusive)
- CC50 [4]: 4.99 µM (active)
- EC50 (Mucolipin-3): 3.5 µM (active)
- EC50 (Ion channel NompC): > 29.9 µM (not active)

Compound: COc1ccc(Br)cc1/C=N/NC(=O)CNC(=O)/C=C/c1ccccc1
- IC50 (H9c2): 15.3 µM (active)
- CC50 [9]: 32.1 µM (active)
